# US7459282B2, “Use of c-Jun or c-Jun activating agents such as UV or c-Jun N-terminal kinases (JNKs) for treating cancer” (Biotech Research Ventures Pte Limited, priority 2001, dated 2008)
# Square brackets hold non-standard residues; d marks the D form. Peptide text beside a SMILES is read from it. Nle = CCCC[C@H](N)C(=O)O
# Columns and labels:
# p73 [1] = assay: Western blot of p73 in MCF-7-p73 cells after proteosome inhibitor; type: cell-based, human; settings: proteosome inhibitor for 3 hours
# Method: FIG. 4. c-Jun is required for UV-mediated p73 stabilization. (a) MCF-7 cells stably transfected with p73 and parental MCF-7 cells were treated with the proteosome inhibitor for 3 hours or UV irradiated (50 J/m^2) and cell extracts were analyzed 2 hours post-irradiation by Western blotting as described in FIG. 1. (b) c-Jun^−/− and c-Jun^−/−+c-Jun mouse embryonic fibroblasts were transfected with the indicated plasmids and were untreated or UVC irradiated (40 J/m^2) or gamma-irradiation (10Gy) 24 hours post-transfection. 24 hours after irradiation, cell extracts were prepared and analyzed for p73 protein levels by Western blotting.
# To analyze if c-Jun provides the stabilization signal, the inventors generated MCF-7 breast carcinoma cells stably expressing p73 (MCF-7-p73 cells), which would thus provide a detectable level of basal p73 expression. The overexpressed p73 was expressed in these cells (FIG. 4a). […] However, when these cells were treated with UV irradiation, which is a potent inducer of c-Jun but not p73 (Jost C A. et al, p73 is a simian [correction of human] p53-related protein that can induce apoptosis, Nature, 1997, Sep. 11; 389(6647):191-4.), p73 expression was detected as early as 2 hours post-irradiation, in contrast to the parental MCF-7 cells (FIG. 4a).
# p73 [2] = assay: Egfp reporter screen for p73 activation in H1299-p53RE cells; type: cell-based, human; settings: p53-null H1299 reporter cells
# Source text: The screen utilises a p53 null cell line, H1299, which is a human lung cancer cell line. In these cells, p53 is not active as the gene is deleted. The inventors have transfected a plasmid containing the p53/p73 binding DNA sequences (or responsive element) driving the enhanced green fluorescent protein gene (Egfp) as a reporter (FIG. 8). Generally, the reporter would be turned “on” when p53 or its homologues bind to the responsive element. […] However, when the cells are exposed to compounds that activate p73, which is normally present in a dormant state in these cells, then these cells would fluoresce and would be visible as green cells under the fluorescence microscope.
# It is important to note that all the cells in the population expressed Egfp, implying that the cell-system generated is homogenous and results in a 100% response.
# p73 [3] = assay: Western blot of endogenous p73 levels in fibroblasts after cisplatin; type: cell-based, mouse; design: levels of p73 protein: dose or concentration left out as unconfirmed
# Method: FIG. 1. […] These extracts were analysed by Western blotting for the expression of p73 and phosphorylated c-Jun using specific antibodies.
# FIG. 2. c-Jun is necessary for cisplatin-induced p73 expression and apoptosis. […] (b) Extracts from cells described in (a) were analyzed for endogenous p73 levels by Western blotting.
# Although p73 is a structural and functional homologue of the p53 tumour suppressor protein, p73 is only activated by a subset of agents that activate p53. […] The inventors have thus investigated the molecular mechanism(s) by which p73 activity is regulated. […] The increase in p73 levels in cisplatin-treated cells correlates with the phosphorylation of the proto-oncogene product, c-Jun (FIG. 1). Phosphorylated c-Jun was not detected upon gamma-irradiation of cells (FIG. 1).
SMILES,expression of p73 protein (p73 [1]),response of the cell population (cells expressing Egfp) (p73 [2]; cisplatin treated) [%],expression of Egfp (endogenous p73 activity) (p73 [2]; flow cytometer),"p73 protein induction (p73 [3]; absence of c-Abl, cisplatin)","p73 protein induction (p73 [3]; c-Jun-/- cells, cisplatin 25 μM, 24 hours)","p73 protein induction (p73 [3]; jun-/-+c-Jun cells, cisplatin 25 μM, 24 hours)","levels of p73 protein (p73 [3]; wild-type mouse embryonic fibroblasts, cisplatin (FIG. 1), 24 hours post-treatment)"
CCCC[C@@H](C=O)NC(=O)[C@H](CC(C)C)NC(=O)[C@H](CC(C)C)NC(C)=O [ALLN] (Ac-Leu-Leu-[Nle]-aldehyde),did not result in the increased expression of p73 protein,–,–,–,–,–,–
N.N.[Cl][Pt][Cl] [cisplatin],–,100,expression of Egfp in all the cells,severely compromised,abrogated the induction of p73,induced significantly,increase in the levels of p73 protein
